In patent US6127406A, “Discodermolide compounds and methods of use” (Harbor Branch Oceanographic Institution, Inc., priority 1999, dated 2000):

Assays:
[1] = tested on: A549 human adenocarcinoma cell line; assay: Antiproliferative effect on A549 cells (MTT); format: cell-based; settings: additional 48 hr exposure, read-out: A549 IC-50
Protocol: (§1) Discodermolide and discodermolide analogs were analyzed as to their effects on proliferation of A549 human adenocarcinoma and P388 murine leukemia cell lines. P388 cells were obtained from Dr. R. Camalier, National Cancer Institute, Bethesda, Md., and A549 cells were obtained from American Type Culture Collection, Rockville, Md. All cell lines were maintained in Roswell Park Memorial Institute (RPMI) medium 1640 supplemented with 10% Rehatuin™ fetal calf serum (Intergen Company, Purchase, N.Y.). All cell lines are cultured in plastic tissue culture flasks and kept in an incubator at 37° C. in humidified air containing 5% CO2. Prior to testing, antibiotic-free stock cultures of each of the cell lines were subcultured to 10^6 cells/ml by dilution in fresh growth medium at 2 to 3 day intervals.
After 48-hr exposures, P388 cells are enumerated using 3-[4,5-Dimethylthiazol-2-yl]-2,5-diphenyltetrazolium bromide (MTT) (M. C. Alley, et al., Cancer Res. 48:589, 1988). […] Results are expressed as percent inhibition compared to the negative (no drug) control. Positive drug controls are included to monitor drug sensitivity of each of the cell lines. These include varying dilutions of 5-fluorouracil and adriamycin.
(§2) To quantitate the effects on cell proliferation and resulting IC50 values, 75 μl of warm growth media containing 5 mg/ml MTT is added to each well, cultures returned to the incubator, and left undisturbed for 90 minutes. To spectrophotometrically quantitate formation of reduced formazan, plates are centrifuged (900× g, 5 minutes), culture fluids removed by aspiration, and 200 μl of acidified isopropanol (2 ml concentrated HCl/liter isopropanol) added per well. The absorbance of the resulting solutions is measured at 570 nm with a plate reader (TECAN Spectra II PlateReader, TECAN U.S., Research Triangle Park, N.C.) and a 650 nm reference filter. The absorbance of tests wells is divided by the absorbance of drug-free wells, and the concentration of agent that results in 50% of the absorbance of untreated cultures (IC50) is determined by linear regression of logit-transformed data (D. J. Finney, Statistical Method in Biological Assay, third ed., pp.316-348, Charles Griffin Co., London, 1978). A linear relationship between tumor cell number and formazan production has been routinely observed over the range of cell densities observed in these experiments. Two standard drug controls are included in each assay as a check to monitor the drug sensitivity of each of the cell lines and IC50 values are determined for each drug-cell combination.

[2] = tested on: purified bovine brain tubulin; assay: Tubulin polymerization (optical density at 350 nm); format: biochemical; settings: for Polymerization?: 10 uM, 37 C.; for microtubule polymerizing activity compared to discodermolide: compared to the non-acetylated discodermolide
Protocol: Polymerization of purified bovine brain tubulin (Cytoskeleton Inc., Denver, Colo.) was followed by changes in the optical density of tubulin solutions at 350 nm in a Hitachi U-3010 spectrophotometer equipped with a SPR-10 electronic thermostatted cell holder. Stock solutions of tubulin were diluted on ice in G-PEM buffer (1 mM GTP, 80 mM PIPES, 1 mM EGTA, 0.5 mM magnesium chloride; pH 6.8) to a final concentration of 1 mg/ml. The instrument was zeroed on this solution at 2° C. Discodermolide, its analogs, or paclitaxel were then added to the tubulin solution to a final concentration of 10 μM, quickly mixed, and the absorbance monitored at 37° C.

[3] = tested on: microtubule network of cells; assay: Microtubule bundling patterns in cells by immunofluorescence; format: cell-based; settings: for Microtubule bundling: concentration not given
Protocol: Discodermolide, discodermolide analogs and paclitaxel were evaluated as to their effects on the microtubule network of cells using FITC-labeled, anti-alpha-tubulin monoclonal antibodies.
On day 1, 2.5×10^5 adherent tumor cells were cultured in RPMI 1640 tissue culture medium supplemented with 10% fetal calf serum (TCM) overnight at 37° C. in 5% CO2 on 22 mm^2 coverslips in 6-well microtiter plates. […] On day 3, TCM was removed and cells attached to coverslips were fixed with a 3.7% formaldehyde solution in Dulbecco's PBS for 10 minutes at room temperature. Cells were permeabilized with a 2% Triton X-100 solution, 2 ml per well, for 5 minutes at room temperature and washed twice in Dulbecco's PBS prior to staining.
To each well containing cells attached to coverslips a 2 ml volume of mouse monoclonal anti-alpha-tubulin (Cat # T-5168, Sigma Immuno Chemicals) diluted 1:2400 was added and the cells incubated at 37° C. in 5% CO2 for 45 minutes. Coverslips were rinsed twice with Dulbecco's PBS. A 2 ml volume of goat-anti-mouse-IgG-FITC conjugate (Cat # T-5262, Sigma Immuno Chemicals) diluted at 1:2400 was added and the cells incubated at 37° C. in 5% CO2 for 45 minutes. Coverslips were rinsed once with sterile distilled water and mounted on slides and observed under the microscope using epifluorescence illumination for the presence of abnormal aster and microtubule bundle formation.

[4] = tested on: P388 murine leukemia cell line; assay: Antiproliferative effect on P388 cells (MTT, 48-hr exposure); format: cell-based; settings: Mus musculus, read-out: P388 IC-50
Protocol: as §1
(§3) To assess the antiproliferative effects of agents against the P388 cell line, 200 μl cultures (96-well tissue culture plates, Nunc, Denmark) are established at 1×10^5 cells/ml in drug-free medium or medium containing the test agent at 10.0, 1.0, 0.10 and 0.010 μg/ml. The solvent for all dilutions is ethanol. All experimental cultures are initiated in medium containing Gentamycin sulfate (50 μg/ml; Schering Corporation, Kenilworth, N.J.).
(§4) After 48-hr exposures, P388 cells are enumerated using 3-[4,5-Dimethylthiazol-2-yl]-2,5-diphenyltetrazolium bromide (MTT) (M. C. Alley, et al., Cancer Res. 48:589, 1988). Similar procedures are utilized for A549 cells which require an additional 48 hr exposure prior to MTT addition. Results are expressed as percent inhibition compared to the negative (no drug) control. Positive drug controls are included to monitor drug sensitivity of each of the cell lines. These include varying dilutions of 5-fluorouracil and adriamycin.
as §2

[5] = tested on: A549 human adenocarcinoma and P388 murine leukemia cell lines; assay: Antitumor effects of discodermolide analogs compared to discodermolide; format: cell-based; settings: compared to the non-acetylated discodermolide
Protocol: as §1, §3, §4
To quantitate the effects on cell proliferation and resulting IC50 values, 75 μl of warm growth media containing 5 mg/ml MTT is added to each well, cultures returned to the incubator, and left undisturbed for 90 minutes. […]

[6] = tested on: purified bovine brain tubulin; assay: Tubulin polymerization (optical density at 350 nm); format: biochemical; settings: 10 uM, 6 C.-37 C.
A549 human lung cells = assay: Effect on cell cycle progression (G2/M block, propidium iodide flow cytometry); format: cell-based; settings: 100 nM, 48 hr
Protocol: A549 human lung cells were used as cell cycle targets to compare the effects of discodermolide, discodermolide analogs and paclitaxel on perturbation of the cell cycle. Cell cycle analyses were performed as follows: A549 cells were incubated at 37° C. in 10% CO2 in air in the presence or absence of varying concentrations of discodermolide, discodermolide analogs or paclitaxel (purchased from Molecular Probes, Eugene Oreg.) for 48 hr.
Cells were harvested, fixed in ethanol and stained with 0.5 mg/ml of P.I. together with 0.1 mg/ml of RNAse A. This procedure permeabilizes live cells and allows entry of P.I. to stain DNA (propidium iodide also stains double stranded RNA, so RNAse is included in the preparation to exclude this possibility). Stained preparations were analyzed on a Coulter EPICS ELITE with 488 nm excitation with the dead cells excluded by back gating of P.I. preparations without detergent on forward and side scatter histograms. Fluorescence measurements and resulting DNA histograms were collected from at least 5,000 P.I. stained cells at an emission wavelength of 690 nm. Raw histogram data was further analyzed using a cell cycle analysis program (Multicycle, Phoenix Flow Systems).

| SMILES | IC50 [1] | Polymerization? [2] | Microtubule Bundling? ([3]; 100 nM) | Microtubule Bundling? ([3]; 1000 nM) | Microtubule bundling [3] | IC50 [4] | Polymerization? ([2]; listed as paclitaxel) | Microtubule Bundling? ([3]; 100 nM, listed as paclitaxel) | microtubule polymerizing activity compared to discodermolide [2] | Microtubule Bundling? ([3]; 10 nM) | antitumor activity compared to discodermolide [5] | Polymerization? [6] | G2/M Block (A549 human lung cells) | Polymerization? ([2]; listed as discodermolide 9) | Microtubule Bundling? ([3]; 100 nM, listed as Discodermolide9) |
| --- | --- | --- | --- | --- | --- | --- | --- | --- | --- | --- | --- | --- | --- | --- | --- |
| C=CC=CC(C)C(OC(N)=O)C(C)C(OC(C)=O)C(C)CC(C)=CC(C)C(O)C(C)C=CC(CC1OC(=O)C(C)C(OC(C)=O)C1C)OC(C)=O (stereo not drawn) [Analog 2, Discodermolide-3,7,17-triacetate] | > 1310 nM | No and inactive | No | No | negative | > 6820 nM | – | – | – | – | – | – | – | – | – |
| CC(=O)O[C@H]1C(=O)[C@@]2(C)[C@H]([C@H](OC(=O)c3ccccc3)[C@]3(O)C[C@H](OC(=O)[C@H](O)[C@@H](NC(=O)c4ccccc4)c4ccccc4)C(C)=C1C3(C)C)[C@]1(OC(C)=O)CO[C@@H]1C[C@@H]2O [Paclitaxel, reference compound] | 7.7 nM | Yes | Yes | – | routinely exhibit abnormal formation of multiple centriolar-radiating microtubules with extensive clusters of associated microtubular "bundles" | – | induced the polymerization of purified tubulin | induced the formation of microtubule bundles | – | – | – | – | – | – | – |
| C=CC=CC(C)C(OC(N)=O)C(C)C(O)C(C)CC(C)=CC(C)C(O)C(C)C=CC(CC1OC(=O)C(C)C(OC(C)=O)C1C)OC(C)=O (stereo not drawn) [Analog 4, Discodermolide-3,7-diacetate] | 3.7 nM | Yes and able to induce tubulin polymerization | Yes and induced similar microtubule bundle formation | – | – | 0.7 nM | – | – | improved | Yes | improved | – | – | – | – |
| C=CC=CC(C)C(OC(N)=O)C(C)C(O)C(C)CC(C)=CC(C)C(OC(C)=O)C(C)C=CC(O)CC1OC(=O)C(C)C(OC(C)=O)C1C (stereo not drawn) [Analog 5, Discodermolide-3,11-diacetate] | 295 nM | No and inactive | No | – | negative | 103 nM | – | – | – | – | – | – | – | – | – |
| C=CC=CC(C)C(OC(N)=O)C(C)C(O)C(C)CC(C)=CC(C)C(O)C(C)C=CC(CC1OC(=O)C(C)C(O)C1C)OC(C)=O (stereo not drawn) [Analog 8, Discodermolide-7-acetate] | 0.8 nM | able to induce tubulin polymerization | Yes and induced similar microtubule bundle formation | Yes | – | 4 nM | – | – | improved | – | improved | Yes | – | – | – |
| C=CC=CC(C)C(OC(N)=O)C(C)C(OC(C)=O)C(C)CC(C)=CC(C)C(O)C(C)C=CC(O)CC1OC(=O)C(C)C(OC(C)=O)C1C (stereo not drawn) [Analog 6, Discodermolide-3,17-diacetate] | 736 nM | No and inactive | No | Yes and induced microtubule bundles only at 1000 nM | – | 1150 nM | – | – | – | – | – | – | – | – | – |
| C=C/C=C\[C@H](C)[C@H](OC(N)=O)[C@@H](C)[C@H](O)[C@@H](C)C/C(C)=C\[C@H](C)[C@@H](O)[C@@H](C)/C=C\[C@@H](O)C[C@@H]1OC(=O)[C@H](C)[C@@H](O)[C@H]1C [Discodermolide 9, (+)discodermolide, reference compound] | 34 nM | Yes | Yes | – | routinely exhibit abnormal formation of multiple centriolar-radiating microtubules with extensive clusters of associated microtubular "bundles" | 35 nM | – | – | – | Yes | – | – | induced cell cycle, G2 /M block | induced the polymerization of purified tubulin | induced the formation of microtubule bundles |
| C=CC=CC(C)C(OC(N)=O)C(C)C(O)C(C)CC(C)=CC(C)C(OC(C)=O)C(C)C=CC(CC1OC(=O)C(C)C(OC(C)=O)C1C)OC(C)=O (stereo not drawn) [Analog 3, Discodermolide-3,7,11-triacetate] | 554 nM | No and inactive | No | – | negative | 166 nM | – | – | – | – | – | – | – | – | – |
| C=CC=CC(C)C(OC(N)=O)C(C)C(O)C(C)CC(C)=CC(C)C(O)C(C)C=CC(O)CC1OC(=O)C(C)C(OC(C)=O)C1C (stereo not drawn) [Analog 7, Discodermolide-3-acetate] | 9.4 nM | Yes and able to induce tubulin polymerization | Yes and induced similar microtubule bundle formation | – | – | 9 nM | – | – | improved | Yes | improved | – | – | – | – |
| C=CC=CC(C)C(OC(N)=O)C(C)C(OC(C)=O)C(C)CC(C)=CC(C)C(OC(C)=O)C(C)C=CC(CC1OC(=O)C(C)C(OC(C)=O)C1C)OC(C)=O (stereo not drawn) [Analog 1, Discodermolide-3,7,11,17-tetraacetate] | 1310 nM | No and inactive | No | – | negative | 837 nM | – | – | – | – | – | – | – | – | – |
